{"source": "patent US9944927B2", "about": "“Therapeutic applications of p53 isoforms in regenerative medicine, aging and cancer” (The United States of America as Represented by the …, priority 2007, dated 2018)", "type_in_all_cases": "cell-based, human", "key": {"[1]": {"system": "MRC-5 and WI-38 fibroblasts", "experiment": "BrdU incorporation assay", "settings": "siRNA-transfected early-passage MRC-5 and WI-38, day 7; 10 μM BrdU 24 h", "procedure": "(§1) For cell proliferation assay, 2.4×10^5 cells per well were plated into 12-well plates. These cells were collected and counted daily for a week using a hematocytometer. The experiments were performed at least twice and data at each time point were in triplicate. For examining cellular replicative lifespan, the number of cells was counted at each passage, and the number of population doublings (PDL) achieved between passages was determined by log2 (number of cells obtained/number of cells inoculated) (Michishita, E. et al., Mol. Biol. Cell 16:4623 (2005); Pereira-Smith, O. M. et al., Somatic Cell Genet. 7:411 (1981)). […] The incorporated BrdU was detected using an anti-BrdU monoclonal antibody (Amersham Biosciences) and observed with a fluorescent microscope. […]\nas §1, with “The experiments were performed at least twice and data at each time point were in triplicate.” left out, “inoculated)^29.” for “inoculated) (Michishita, E. et al., Mol. Biol. Cell 16:4623 (2005); Pereira-Smith, O. M. et al., Somatic Cell Genet. 7:411 (1981)).”"}, "[2]": {"system": "MRC-5 and WI-38 fibroblasts", "experiment": "cellular senescence: senescent growth arrest, SA-β-gal staining", "settings": "siRNA-transfected early-passage MRC-5 and WI-38, day 7"}, "miR-34a": {"system": "miR-34a", "experiment": "real-time qRT-PCR of miR-34a expression", "settings": "for miR-34a expression at Δ133p53 knockdown-induced senescence: siRNA-transfected MRC-5 and WI-38", "procedure": "(§2) RNA samples were prepared by using Trizol (Invitrogen). Reverse transcriptase reactions were performed using TagMan miRNA reverse transcription kit (Applied Biosystems, cat. no. 4366596) and a miR-34a-specific primer. The TagMan miRNA assay kit for miR-34a (Applied Biosystems, cat. no. 4373278) was used according to the supplier's protocol. Real-time PCR reactions were performed in triplicate. RNU66 (Applied Biosystems, cat. no. 4373382) was used as a control for quantification. Based on Ct (cycle threshold) values from miR-34a and RNU66 detections, normalized miR-34a expression was calculated by using the […] method according to the supplier's protocol (protocol no. 4310255B and User Bulletin no. 4303859B found on the world wide web at appliedbiosystems.com/index.cfm).\nas §2, with “TaqMan microRNA” for “TagMan miRNA”"}, "p21^WAF1 and MDM2": {"system": "p21^WAF1 and MDM2", "experiment": "immunoblot of p53 transcriptional targets p21WAF1 and MDM2", "settings": "siRNA-transfected early-passage MRC-5 and WI-38, day 7", "procedure": "Cells were lysed in RIPA buffer [10 mM Tris-HCl, pH 7.5, 150 mM NaCl, 0.1% SDS, 0.1% sodium deoxycholate, 1 mM EDTA, 1% NP-40, complete protease inhibitors (Roche), phosphatase inhibitor cocktail 1 and 2 (Sigma)]. Lysates were separated by SDS-PAGE and transferred to nitrocellulose membranes (BIO-RAD) Immunoblot analysis was accomplished according to standard procedures using ECL detection (Amersham Bioscience) or SuperSignal West Dura Extended Duration system (PIERCE).\nA polyclonal antibody specifically recognizing Δ133p53 (MAP4) was raised at Moravian Biotechnology (Brno, Czech Republic) in rabbits injected with a mixture of peptides MFCQLAKTC (SEQ ID NO:13) and FCQLAKTCP (SEQ ID NO:14), which were synthesized as Multiple Antigenic Peptide by G. Bloomberg (University of Bristol, Bristol, UK). […]\nCells or tissues were lysed in RIPA buffer [10 mM Tris-HCl, pH 7.5, 150 mM NaCl, 0.1% SDS, 0.1% sodium deoxycholate, 1 mM EDTA, 1% NP-40, complete protease inhibitors (Roche, Indianapolis, Ind.), phoshatase inhibitor cocktail 1 and 2 (Sigma-Aldrich)]. […] The quantitative analysis of the immunoblot data was performed using the ImageJ 1.40 g software (on the world wide web at rsb.info.nih.gov/ij/). […]"}, "PAI-1": {"system": "PAI-1", "experiment": "real-time qRT-PCR of PAI-1 mRNA", "settings": "siRNA-transfected early-passage WI-38, day 7", "text": "For quantitative measurement of PAI-1 mRNA, the SYBR Green PCR Master Mix (Applied Biosystems) was used with the following primers: 5′-CTC CTG GTT CTG CCC AAG T-3′ (SEQ ID NO:15) and 5′-CAGGTTCTCTAGGGGCTTCC-3′ (SEQ ID NO:16) for PAI-1; and 5′-TTC TGG CCT GGA GGC TAT C-3′ (SEQ ID NO:17) and 5′-TCAGGAAATTTGACTTTCCATTC-3′ (SEQ ID NO:18) for β-2 microglobulin as an internal control. For IL-8 and IL-8R, the Taqman Universal PCR Master Mix (Applied Biosystems) was used with the following sets of probe and primers purchased from Applied Biosystems: IL-8 (catalog #4331182, Hs00174103_m1); IL-8R (catalog #4331182, Hs001174304_m1); and 18S endogenous control (catalog #4319413)."}, "caspase-3 and PARP": {"system": "caspase-3 and PARP", "experiment": "apoptosis immunoblot of caspase-3 and PARP", "settings": "for cleaved caspase-3 or PARP (apoptosis): siRNA-transfected MRC-5 and WI-38", "procedure": "Cells or tissues were lysed in RIPA buffer [10 mM Tris-HCl, pH 7.5, 150 mM NaCl, 0.1% SDS, 0.1% sodium deoxycholate, 1 mM EDTA, 1% NP-40, complete protease inhibitors (Roche, Indianapolis, Ind.), phoshatase inhibitor cocktail 1 and 2 (Sigma-Aldrich)]. SDS-PAGE, transfer to nitrocellulose or PVDF membranes (Bio-Rad, Hercules, Calif.), incubation with antibodies, and signal detection followed the standard procedures using ECL detection (Amersham Biosciences, Piscataway, N.J.) or SuperSignal West Dura Extended Duration system (Pierce Biotechnology, Rockford, Ill.). The quantitative analysis of the immunoblot data was performed using the ImageJ 1.40 g software (on the world wide web at rsb.info.nih.gov/ij/).\nA polyclonal antibody specifically recognizing Δ133p53 (MAP4) was raised at Moravian Biotechnology (Brno, Czech Republic) in rabbits injected with a mixture of peptides, MFCQLAKTC (SEQ ID NO:13) and FCQLAKTCP (SEQ ID NO: 14), which were synthesized as Multiple Antigenic Peptide by Dr. G. Bloomberg (University of Bristol, Bristol, UK). The other primary antibodies used were: TLQ40^5 for p53β; CM1^5, DO-12 (Millipore, Billerica, Mass.) and DO-1 (Santa Cruz Biotechnology, Santa Cruz, Calif.) for p53; EA10 (Carbiochem, San Diego, Calif.) for p21^WAF1; SMP14 (Santa Cruz Biotechnology) for MDM2; 8G10 (Cell Signaling Technology, Danvers, Mass.) for caspase-3; M2 monoclonal antibody (Sigma-Aldrich) for FLAG tag; AC-15 (Sigma-Aldrich) for β-actin; MAB3450 (Chemicon International, Temecula, Calif.) for HP1-γ; anti-phospho-p53 (Ser15) (Cell Signaling Technology); anti-PARP (Cell Signaling Technology); FITC-conjugated anti-CD8 (BD Biosciences, Franklin Lakes, N.J.); APC-conjugated anti-CD28 (BD Biosciences); and PE-conjugated anti-CD57 (Abcam, Cambridge, Mass.). Horseradish peroxidase-conjugated goat anti-mouse or anti-rabbit antibodies (Santa Cruz Biotechnology) were used as secondary antibodies in immunoblots."}, "[3]": {"system": "MRC-5 and WI-38 fibroblasts", "experiment": "cellular replicative lifespan (cumulative population doublings)", "procedure": "as §1\nas §1, with “The experiments were performed at least twice and data at each time point were in triplicate.” left out, “inoculated)^29.” for “inoculated) (Michishita, E. et al., Mol. Biol. Cell 16:4623 (2005); Pereira-Smith, O. M. et al., Somatic Cell Genet. 7:411 (1981)).”"}, "hTERT/NHF cells": {"system": "hTERT/NHF cells", "experiment": "Nutlin-3A-induced senescence, SA-β-gal assay", "settings": "10 μM Nutlin-3A for 72 h"}}}
{"compound": "5′-UGUUCACUUGUGCCCUGACUUUCAA-3′ [Δ133si-1]", "values": [{"measurement": "BrdU incorporation", "setting": "[1]", "value": "attenuation of BrdU incorporation"}, {"measurement": "SA-β-gal activity", "setting": "[2]", "value": "induction of SA-β-gal activity"}, {"measurement": "miR-34a expression at Δ133p53 knockdown-induced senescence", "setting": "miR-34a", "value": "not upregulated"}, {"measurement": "p21^WAF1 expression", "setting": "p21^WAF1 and MDM2", "value": "upregulation of p21^WAF1"}, {"measurement": "PAI-1 expression", "setting": "PAI-1", "value": "upregulation"}, {"measurement": "cleaved caspase-3 or PARP (apoptosis)", "setting": "caspase-3 and PARP", "value": "No cleaved caspase-3 or PARP was observed"}]}
{"compound": "5′-AACAACCAGCUAAGACACUGCCA-3′ (antisense AACAACCAGCUAAGACACUGCCA; all 2'-O-methyl, backbone not given here) [antisense miR-34a]", "values": [{"measurement": "replicative lifespan", "setting": "[3]; late-passage MRC-5, antisense 40 nM transfected every 4 days", "value": "extended the replicative lifespan"}, {"measurement": "extension of replicative lifespan", "setting": "[3]; late-passage MRC-5 at passage 58, antisense transfected every 4 days", "value": "approximately five"}, {"measurement": "inhibition of Nutlin-3A-induced senescence", "setting": "hTERT/NHF cells", "value": "approximately 50%"}, {"measurement": "miR-34a expression after antisense transfection", "setting": "miR-34a; late-passage MRC-5, antisense 40 nM", "value": "downregulation of miR-34a expression was confirmed"}]}
{"compound": "5′-CUU GUG CCC UGA CUU UCA A[dT][dT]-3′ [Δ133si-2]", "values": [{"measurement": "BrdU incorporation", "setting": "[1]", "value": "attenuation of BrdU incorporation"}, {"measurement": "SA-β-gal activity", "setting": "[2]", "value": "induction of SA-β-gal activity"}, {"measurement": "miR-34a expression at Δ133p53 knockdown-induced senescence", "setting": "miR-34a", "value": "not upregulated"}, {"measurement": "p21^WAF1 expression", "setting": "p21^WAF1 and MDM2", "value": "upregulation of p21^WAF1"}, {"measurement": "PAI-1 expression", "setting": "PAI-1", "value": "upregulation"}, {"measurement": "cleaved caspase-3 or PARP (apoptosis)", "setting": "caspase-3 and PARP", "value": "No cleaved caspase-3 or PARP was observed"}]}
{"compound": "COc1cccc2c1C(=O)c1c(O)c3c(c(O)c1C2=O)C[C@@](O)(C(=O)CO)C[C@@H]3O[C@H]1C[C@H](N)[C@H](O)[C@H](C)O1", "note": "[doxorubicin, reference compound]", "values": [{"measurement": "apoptosis (caspase-3, PARP immunoblot)", "setting": "caspase-3 and PARP; RKO cells, positive control", "value": "showing apoptosis"}]}
{"compound": "COc1ccc(C2=N[C@@H](c3ccc(Cl)cc3)[C@@H](c3ccc(Cl)cc3)N2C(=O)N2CCNC(=O)C2)c(OC(C)C)c1", "note": "[Nutlin-3a, reference compound]", "values": [{"measurement": "miR-34a expression", "setting": "miR-34a; hTERT/NHF cells, p53 shRNA, or 10 μM Nutlin-3a for 36 h", "value": "induced"}]}
